Experimental data from patent US11053205B2, “Phenazine derivatives as antimicrobial agents” (University of Florida Research Foundation, Incorporated, priority 2017, dated 2021).
In brackets after ≈: the same amount, converted by molar mass. Where two headings read alike, the source gives them in different places. Marks after values point to notes of the source that are not given here.

What was measured:
MRSA BAA-1707 = assay: MIC, broth microdilution (CLSI); settings: 16 to 18 hours at 37° C.; 0.10 = lowest concentration tested
MRSE 35984 = assay: MIC, broth microdilution (CLSI); settings: for MRSE 35984 MIC: 16 to 18 hours at 37° C.
MRSA BAA-1707 biofilms = assay: Calgary Biofilm Device (CBD) assay, MBC/MBEC; settings: for MRSA BAA-1707 MBEC / MRSA BAA-1707 MBC: CBD; for MRSA BAA-1707 MBEC: biofilm eradication; for MRSA BAA-1707 MBC: planktonic killing
MRSE 35984 biofilms = assay: Calgary Biofilm Device (CBD) assay, MBC/MBEC; settings: CBD; for MRSE 35984 MBEC: biofilm eradication; for MRSE 35984 MBC: planktonic killing
MRSA-2 biofilms = assay: Calgary Biofilm Device (CBD) assay, MBC/MBEC; settings: for MRSA-2 MBEC: biofilm eradication; for MBC: Staphylococcus aureus, MRSA, read-out: MRSA-2 MBC
VRE 700221 = assay: MIC, broth microdilution (CLSI); settings: for VRE 700221 MIC: 16 to 18 hours at 37° C.

| SMILES | MRSA BAA-1707 MIC (MRSA BAA-1707) | MRSE 35984 MIC (MRSE 35984) | MRSA BAA-1707 MBEC (MRSA BAA-1707 biofilms) [µM] | VRE 700221 MIC (VRE 700221) | IC50 (HeLa cells) [µM] | also measured |
| --- | --- | --- | --- | --- | --- | --- |
| Cc1cc2nc3c(O)c(Br)cc(Br)c3nc2c(C)c1C [Compound 59A] | 0.59^a μM | 0.1^b μM | 75 |  |  | Hemolysis at 200 μM (human red blood cells): 1.3%; MRSA BAA-1707 MBC (MRSA BAA-1707 biofilms): 150 µM; MRSE 35984 MBEC (MRSE 35984 biofilms): 5 µM; MRSE 35984 MBC (MRSE 35984 biofilms): 25 µM |
| C[C@H]1c2cccc(O)c2C(=O)C2=C(O)[C@]3(O)C(=O)C(C(N)=O)=C(O)[C@@H](N(C)C)[C@@H]3[C@@H](O)[C@@H]21 [Doxycycline] |  |  |  |  |  | MRSA-2 MBEC (MRSA-2 biofilms; CBD): 46.9 µM; MBC (MRSA-2 biofilms): 2 µM (≈ 0.889 µg/mL) |
| COCCOCCOCCOCCOC(=O)Oc1c(Br)cc(Br)c2nc3cc(Oc4ccccc4)ccc3nc12 [Compound 78A] | 0.1^b μM | 0.1^b μM | 4.69 | 0.3^a μM |  | Hemolysis at 200 μM (human red blood cells): ≤1%; MRSA BAA-1707 MBC (MRSA BAA-1707 biofilms): 18.8 µM |
| Cc1ccc2nc3c(O)c(Br)cc(Br)c3nc2c1C [HP 1-19] |  |  |  |  |  | Hemolysis at 200 μM (human red blood cells; human, 1 h, 200 μM, pH 7.2): 5.3%; MIC (MRSE 35984; Staphylococcus epidermidis, MRSE, read-out: MRSE 35984 MIC, 16 to 18 hours at 37° C.): 0.3 µM (≈ 0.115 µg/mL); MIC (VRE 700221; Enterococcus, VRE, read-out: VRE 700221 MIC, 16 to 18 hours at 37° C.): 0.15 µM (≈ 0.0573 µg/mL) |
| CCN(CC)c1ccc2nc3c(O)c(Br)cc(Br)c3nc2c1Br [64A] |  |  | 4.69 |  | > 100 |  |
| Cc1cc(C)c2nc3c(Br)cc(Br)c(O)c3nc2c1 [56A] |  |  | 4.69 |  | > 100 |  |
| CC1=C(C)C(=O)C(COC(=O)OCOc2c(Br)cc(Br)c3nc4cc(Cl)ccc4nc23)=C(C)C1=O [87A] | 0.15 µM |  | 12.5 |  | > 100 | Hemolysis at 200 μM (human red blood cells): 2.7% |
| COCCOCCOCCOCCOC(=O)Oc1c(Br)cc(Br)c2nc3cc(Cl)ccc3nc12 [Compound 77A] | 0.0005^a μM | 0.1^b μM |  | 0.1^b μM | > 100 | Hemolysis at 200 μM (human red blood cells): 1.1%; MRSE 35984 MBEC (MRSE 35984 biofilms): 18.8 µM; MRSE 35984 MBC (MRSE 35984 biofilms): 9.38 µM |
| COCCOCCOCCOC(=O)OCOc1c(Br)cc(Br)c2nc3ccccc3nc12 [Compound 80A] | >100 µM | >100 µM |  | >100 µM |  | Hemolysis at 200 μM (human red blood cells): 1.4% |
| Cc1ccc2nc3c(O)c(Br)cc(Br)c3nc2c1 [52A] |  |  |  |  | > 100 |  |
| CCOC(=O)c1ccc2nc3c(O)c(Br)cc(Br)c3nc2c1 [Compound 62A] |  |  |  | 2.35^a μM |  |  |
| O=C(OCCOCCOCCOCCO)OCOc1c(Br)cc(Br)c2nc3ccccc3nc12 [Compound 82A] | >100 µM | >100 µM |  | >100 µM | > 100 | Hemolysis at 200 μM (human red blood cells): 2.7% |
| COCCOCCOCCOCCOC(=O)Oc1c(Br)cc(Br)c2nc3cc(Oc4ccccc4)ccc3nc12 [78A] | 0.1 µM |  |  |  |  |  |
| CCCc1cn(Cc2ccc3nc4c(OC(C)=O)c(Br)cc(Br)c4nc3c2)nn1 [Compound 74A] | 100 ^ μM |  |  | >100 µM |  |  |
| N#CC(C#N)=NNc1cccc(Cl)c1 [CCCP, reference compound] |  |  |  |  |  | MRSA-2 MBEC (MRSA-2 biofilms; CBD): 1000 µM; MRSA-2 MBC (MRSA-2 biofilms; CBD, planktonic killing): 31.3 µM; MRSE 35984 MBEC (MRSE 35984 biofilms): 93.8 µM; MRSE 35984 MBC (MRSE 35984 biofilms): 31.3 µM |
| CS(=O)(=O)N1CCN(C(=O)Oc2c(Br)cc(Br)c3nc4ccccc4nc23)C1=O [Compound 31] |  | 0.78 µM | 75 | 3.13 µM |  |  |
| Oc1c(Br)cc(Br)c2nc3cc(Oc4ccccc4)ccc3nc12 [63A] | 0.075 µM | 0.1 µM | 2.35 | 0.2 µM | > 100 |  |
| Oc1c(Br)cc(Br)c2nc3cc(Oc4ccccc4)ccc3nc12 [Compound 34] | 0.1 µM | 0.1 µM | 2.35 | 0.2 µM |  |  |
| COCCOCCOCCOCCOC(=O)Oc1c(Br)cc(Br)c2nc3cc(Cl)ccc3nc12 [77A] | 0.0005 µM |  |  |  |  |  |
| OC[C@H]1O[C@@H](Oc2c(Br)cc(Br)c3nc4ccccc4nc23)[C@H](O)[C@@H](O)[C@@H]1O [Compound 28] | >100 µM | >100 µM |  | >100 µM |  |  |

| SMILES | MRSA BAA-1707 MIC (MRSA BAA-1707) | MRSE 35984 MIC (MRSE 35984) | MRSA BAA-1707 MBEC (MRSA BAA-1707 biofilms) [µM] | VRE 700221 MIC (VRE 700221) | IC50 (HeLa cells) [µM] | also measured |
| --- | --- | --- | --- | --- | --- | --- |
| CC(=O)NC[C@H]1CN(c2ccc(N3CCOCC3)c(F)c2)C(=O)O1 [linezolid, reference compound] | 12.5 ^ μM |  |  |  |  | Hemolysis at 200 μM (human red blood cells; human, 1 h, 200 μM, pH 7.2): ≤1%; MBC (MRSA BAA-1707 biofilms; Staphylococcus aureus, read-out: MRSA BAA-1707 MBC): 31.3 µM (≈ 10.6 µg/mL); biofilm eradication activities against MRSA biofilms (MRSA BAA-1707 biofilms; at 2,000 μM (highest concentration tested)): no biofilm eradication activities |
| CCOC(=O)c1ccc2nc3c(O)c(Br)cc(Br)c3nc2c1 [Compound 38] | >100 µM |  |  |  |  |  |
| COCCOCCOCCOC(=O)OCOc1c(Br)cc(Br)c2nc3ccccc3nc12 [Compound 30] | >100 µM | >100 µM |  | >100 µM |  |  |
| CC1=C(C)C(=O)C(COC(=O)OCOc2c(Br)cc(Br)c3nc4ccccc4nc23)=C(C)C1=O [86A] | 2.35 µM |  | 75 |  |  |  |
| OC[C@H]1O[C@@H](Oc2c(Br)cc(Br)c3nc4ccccc4nc23)[C@H](O)[C@@H](O)[C@@H]1O [Compound 79A] |  |  |  |  |  | Hemolysis at 200 μM (human red blood cells): ≤1% |
| CCc1cccc2nc3c(Br)cc(Br)c(O)c3nc12 [Compound 37] | >100 µM | >100 µM |  | >100 µM |  |  |
| O=C(OCCSSCCOC(=O)c1ccccc1)OCOc1c(Br)cc(Br)c2nc3ccccc3nc12 [Compound 85A] | >100 µM | >100 µM |  | >100 µM | > 100 | Hemolysis at 200 μM (human red blood cells): 1.3% |
| CCN(CC)c1ccc2nc3c(O)c(Br)cc(Br)c3nc2c1Br [Compound 35] | 0.15 µM | 0.1 µM | 4.69 | 0.30 µM |  | MRSE 35984 MBEC (MRSE 35984 biofilms): 1.56 µM |
| COCCOCCOCC(=O)Oc1c(Br)cc(Br)c2nc3ccccc3nc12 [Compound 75A] | 0.59^a μM |  | 75 | 3.13 µM | > 100 | Hemolysis at 200 μM (human red blood cells): 1.2%; MRSA BAA-1707 MBC (MRSA BAA-1707 biofilms): 18.8 µM; MRSE 35984 MBEC (MRSE 35984 biofilms): 37.5 µM; MRSE 35984 MBC (MRSE 35984 biofilms): 9.38 µM |
| Cc1ccc2nc3c(O)ccc(Br)c3nc2c1 [66A] |  |  |  |  | > 100 |  |
| CCc1cccc2nc3c(Br)cc(Br)c(O)c3nc12 [Compound 58A] | >100 ^ μM | >100 µM |  | >100 µM |  |  |
| CCCc1ccc2nc3c(O)c(Br)cc(Br)c3nc2c1 [54A] |  |  |  |  | > 50 |  |
| CCOc1ccc2nc3c(O)c(Br)cc(Br)c3nc2c1 [Compound 60A] | >100 ^ μM | 18.8^a μM |  | >100 µM |  |  |
| Cc1cc2nc3c(O)c(Br)cc(Br)c3nc2c(C)c1C [59A] |  |  |  |  | > 100 |  |
| CCc1ccc2nc3c(O)c(Br)cc(Br)c3nc2c1 [53A] |  |  |  |  | > 50 |  |
| NC(=O)c1cnccn1 [Pyrazinamide] |  |  |  |  |  | MRSA-2 MBEC (MRSA-2 biofilms; CBD): >2000/>2000 μM; MBC (MRSA-2 biofilms): > 2000 µM |
| Cc1ccc2nc3c(Br)cc(Br)c(O)c3nc2c1C [Compound 57A] | >100 ^ μM | >100 µM |  | >100 µM |  |  |
| CCCc1cn(Cc2ccc3nc4c(OC(C)=O)c(Br)cc(Br)c4nc3c2)nn1 [compound 74] |  | 18.8 µM |  |  |  |  |
| CCCc1ccc2nc3c(O)c(Br)cc(Br)c3nc2c1 [Compound 54A] | 0.1^b μM | 0.15^a μM | 75 | 3.13 µM |  | Hemolysis at 200 μM (human red blood cells): 2.1%; MRSA BAA-1707 MBC (MRSA BAA-1707 biofilms): 37.5 µM; MRSE 35984 MBEC (MRSE 35984 biofilms): 37.5 µM; MRSE 35984 MBC (MRSE 35984 biofilms): 25 µM |
